According to patent US11532406B2, “High specific activity preparation of F-18 tetrafluoroborate” (Mayo Foundation for Medical Education and Research, priority 2016, dated 2022):

Legend:
NIS = details: reference (21); read-out: IC50 for inhibition of iodine uptake by NIS in thyroid; cited from earlier work
[1] = Stability of ^18F-TFB (radio-TLC and anion chromatography HPLC); assay type: physicochemical; details: NaBF4 stock solution stored for 7 month at room temperature
Method: The product ^18F-TFB was analyzed for radiochemical purity by both radio-TLC (MeOH, Rf=0.8-0.85) and anion chromatography HPLC with radioactivity detector (Dionex IC-2100, AS19 analytical column: 4.7×150 mm; eluent: 35 mM KOH; sample volume: 25.L; flow rate: 1 mL/min; retention times: 7.6 min for ^18F-TFB, […]). Chemical purity and specific activity were analyzed by anion chromatography HPLC (retention times: 3.5 min for fluoride, 4.3 min for chloride, and 7.6 min for BF4—). Residual organic solvents were analyzed by GC (helium carrier gas flow at 10 cc/min through a MXTWAX column (Restek, Bellefonte, Pa., 0.53 mm ID, 30 m length)).
After the synthesis, a sample was diluted with water for the analysis. With the eluent of methanol on silica gel plate, purities of >98% were obtained on the radio-TLC scanner.
^18F-TFB was prepared and formulated in sterile 0.9% NaCl under cGMP conditions as previously described (12). Decay-corrected radiochemical yields of 32±2% and radiochemical purities (RCPs) >98% were obtained. Specific radioactivity of 2.2±0.9 GBq/μmol was achieved from starting ^18F-fluoride radioactivity of 20-31 GBq. In vitro RCP remained >96% up to 8 h at room temperature.

SMILES	IC50 (NIS) [nM]	TFB decayed (HPLC) [1] [%]
F[B-](F)(F)F [TFB, tetrafluoroborate]	100 to 1000	
F[B-](F)(F)F.[Na+] [NaBF4, reference compound]		50
